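Five concentrations, 48 hours, 96-well plates. TGI denotes the concentration required for complete inhibition of growth.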
How the values were obtained:
Test in all cases: NCI-60 cell line screen, 48 h
[1] = tested on: IGROV1 ovarian
[2] = tested on: NCI-H460 lung
[3] = tested on: T-47D breast
[4] = tested on: SK-MEL-2 melanoma
[5] = tested on: HCC-2998 colon
[6] = tested on: ACHN renal
[7] = tested on: PC-3 prostate
[8] = tested on: NCI-H226 lung
[9] = tested on: CAKI-1 renal
[10] = tested on: HOP-92 NSCLC
[11] = tested on: SNB-75 CNS
[12] = tested on: 786-0 renal
[13] = tested on: MCF7 breast
[14] = tested on: KM12 colon
[15] = tested on: SR leukemia
[16] = tested on: M14 melanoma
[17] = tested on: RPMI-8226 leukemia
[18] = tested on: NCI-H23 lung
[19] = tested on: LOX IMVI melanoma
[20] = tested on: RXF 393 renal
[21] = tested on: U251 CNS
[22] = tested on: UO-31 renal
[23] = tested on: BT-549 breast
[24] = tested on: SK-MEL-28 melanoma
[25] = tested on: SF-539 CNS
[26] = tested on: OVCAR-5 ovarian
[27] = tested on: MDA-MB-231 breast
[28] = tested on: COLO 205 colon
[29] = tested on: NCI-H522 lung
[30] = tested on: UACC-62 melanoma
[31] = tested on: SN12C renal
[32] = tested on: TK-10 renal
[33] = tested on: SF-268 CNS
[34] = tested on: K-562 leukemia
[35] = tested on: UACC-257 melanoma
[36] = tested on: SNB-19 CNS
[37] = tested on: A549 NSCLC
[38] = tested on: MDA-N
[39] = tested on: OVCAR-8 ovarian
[40] = tested on: DU-145 prostate
[41] = tested on: HCT-116 colon
[42] = tested on: NCI/ADR-RES ovarian
[43] = tested on: MOLT-4 leukemia
[44] = tested on: SW-620 colon
[45] = tested on: MALME-3M melanoma
[46] = tested on: MDA-MB-435
[47] = tested on: OVCAR-4 ovarian
[48] = tested on: EKVX NSCLC
[49] = tested on: SK-MEL-5 melanoma
[50] = tested on: HL-60(TB) leukemia
[51] = tested on: CCRF-CEM leukemia
[52] = tested on: SK-OV-3 ovarian
[53] = tested on: A498 renal
[54] = tested on: SF-295 CNS
[55] = tested on: OVCAR-3 ovarian
[56] = tested on: HCT-15 colon
[57] = tested on: HS 578T breast
[58] = tested on: HT29 colon
[59] = tested on: HOP-62 NSCLC

SMILES: COc1cccc(/C=C\c2ccc(O)cc2)c1
- TGI [1]: > 100 µM
- TGI [2]: > 67.3 µM
- TGI [3]: > 84.2 µM
- TGI [4]: 68.8 µM
- TGI [5]: > 62.8 µM
- TGI [6]: > 89.2 µM
- TGI [7]: 99.5 µM
- TGI [8]: > 88.8 µM
- TGI [9]: > 84.1 µM
- TGI [10]: 64.8 µM
- TGI [11]: 70.2 µM
- TGI [12]: 49.2 µM
- TGI [13]: > 100 µM
- TGI [14]: 33.3 µM
- TGI [15]: 20.1 µM
- TGI [16]: 63.5 µM
- TGI [17]: > 100 µM
- TGI [18]: 39.6 µM
- TGI [19]: 41.2 µM
- TGI [20]: > 78.8 µM
- TGI [21]: > 57.5 µM
- TGI [22]: 33.7 µM
- TGI [23]: 58.4 µM
- TGI [24]: > 100 µM
- TGI [25]: 53.1 µM
- TGI [26]: > 100 µM
- TGI [27]: > 100 µM
- TGI [28]: > 100 µM
- TGI [29]: 56.8 µM
- TGI [30]: > 100 µM
- TGI [31]: > 68.3 µM
- TGI [32]: > 100 µM
- TGI [33]: > 96.7 µM
- TGI [34]: > 50.4 µM
- TGI [35]: > 100 µM
- TGI [36]: > 100 µM
- TGI [37]: > 80.9 µM
- TGI [38]: > 100 µM
- TGI [39]: 56.2 µM
- TGI [40]: 56.6 µM
- TGI [41]: 74 µM
- TGI [42]: 31.7 µM
- TGI [43]: 38.7 µM
- TGI [44]: > 90.7 µM
- TGI [45]: 65.9 µM
- TGI [46]: > 91.2 µM
- TGI [47]: > 100 µM
- TGI [48]: > 100 µM
- TGI [49]: > 51.7 µM
- TGI [50]: 2.92 µM
- TGI [51]: 1.22 µM
- TGI [52]: > 100 µM
- TGI [53]: 69.8 µM
- TGI [54]: > 100 µM
- TGI [55]: > 82.7 µM
- TGI [56]: > 76.1 µM
- TGI [57]: 75 µM
- TGI [58]: 53.7 µM
- TGI [59]: > 100 µM

SMILES: CSc1c(C#N)c(S)[nH]c(=O)c1C#N
- TGI [1]: > 100 µM
- TGI [2]: > 100 µM
- TGI [3]: > 100 µM
- TGI [4]: > 100 µM
- TGI [5]: > 100 µM
- TGI [7]: > 100 µM
- TGI [8]: > 100 µM
- TGI [9]: > 100 µM
- TGI [11]: > 100 µM
- TGI [12]: > 100 µM
- TGI [13]: > 100 µM
- TGI [14]: > 100 µM
- TGI [15]: > 100 µM
- TGI [16]: > 100 µM
- TGI [17]: > 100 µM
- TGI [18]: > 100 µM
- TGI [19]: > 100 µM
- TGI [20]: > 100 µM
- TGI [21]: > 100 µM
- TGI [22]: 87.5 µM
- TGI [23]: > 100 µM
- TGI [24]: > 100 µM
- TGI [25]: > 100 µM
- TGI [26]: > 100 µM
- TGI [27]: > 100 µM
- TGI [28]: > 100 µM
- TGI [29]: > 100 µM
- TGI [30]: > 100 µM
- TGI [31]: > 100 µM
- TGI [32]: > 100 µM
- TGI [33]: > 100 µM
- TGI [34]: > 100 µM
- TGI [35]: > 100 µM
- TGI [36]: > 100 µM
- TGI [37]: > 100 µM
- TGI [38]: > 100 µM
- TGI [39]: > 100 µM
- TGI [40]: > 100 µM
- TGI [41]: > 100 µM
- TGI [42]: > 100 µM
- TGI [43]: > 100 µM
- TGI [44]: > 100 µM
- TGI [45]: 51.5 µM
- TGI [46]: > 100 µM
- TGI [47]: > 100 µM
- TGI [48]: > 100 µM
- TGI [49]: 98.9 µM
- TGI [50]: > 100 µM
- TGI [51]: > 100 µM
- TGI [52]: > 100 µM
- TGI [53]: 98 µM
- TGI [55]: > 100 µM
- TGI [56]: > 100 µM
- TGI [57]: > 100 µM
- TGI [58]: > 100 µM

From PubChem BioAssay (NCI)
